Laboratory results as given in patent publication US11135186B2, “Regulators of the endoplasmic reticulum proteostasis network” (The Scripps Research Institute, priority 2015, dated 2021).

Columns and labels:
[1] = system: ERSE-FLuc reporter (ATF6 arm of the UPR); assay: ERSE-FLuc reporter, 1536-well confirmation screen in HEK293T-Rex cells; format: cell-based; details: % Tg (500 nM) activation, triplicate confirmation screen at 6.8 μM, 18 h
Source text: We employed a transcriptional reporter that quantifies activation of the ATF6 arm of the UPR in HEK293T-Rex cells. This reporter contains a fragment of the UPR-inducible BiP promoter, including three ER stress-responsive elements (ERSEs), driving expression of firefly luciferase (ERSE-FLuc; FIG. 1a)^34. We previously employed this reporter for a small-scale screen using the 1280 member compound Library of Pharmacologic Active Compounds (LoPAC) to find small molecules that activate the UPR^8. […] Optimization and miniaturization of this assay to 1536-well format was performed at the Scripps Research Institute Molecule Screening Center (SRIMSC).
(§1) HEK293T-Rex cells incorporating either the ERSE-FLuc or XBP1s-RLuc reporters were collected by trypsinization and resuspended at a density of 500,000 cells per mL. The assay was started by dispensing 5 μL of cell suspension into each well of white, solid-bottom 1536-well plates using a flying reagent dispenser (FRD) and placed into an online incubator 3 h. Cells were then treated with 34 nL/well of either test compounds to give final concentrations of 6.8 μM, DMSO (Low control, final concentration 0.68%, 0% activation) or […] of Delta-7 thapsigargin (High control, final concentration 500 nM, 100% activation). Plates were incubated for 18 h at 37° C., removed from the incubator and equilibrated to room temperature for 10 min. Luciferase activity was detected by addition of 5 μL of ONE-Glo reagent (Promega) to each well. After a 10 min incubation time, light emission was measured with the ViewLux reader (PerkinElmer). The percent activation of each test compound was calculated as follows: % Activation=100*(Test Compound−Median Low Control)/(Median High Control ˜Median Low Control).

[2] = system: XBP1-RLuc reporter (IRE1/XBP1s arm of the UPR); assay: XBP1-RLuc splicing reporter, 1536-well screen in HEK293T-Rex cells; format: cell-based; details: % Tg (500 nM) activation, triplicate confirmation screen at 6.8 μM, 18 h
Source text: To evaluate the selectivity of our screening hits for ATF6, we employed an alternative luciferase reporter to measure activation of the IRE1/XBP1s arm of the UPR. This reporter contains Renilla luciferase (RLuc) expressed out of frame downstream of the XBP1 splice site, preventing RLuc translation in the absence of stress (FIG. 2b)^36,37. In response to IRE1 activation, the 26-nt XBP1 intron is removed, producing a frame shift that allows for RLuc translation and activity. Robust dose-dependent activation of the XBP1-RLuc reporter upon addition of the ER stressors Tg and Tm was confirmed in HEK293T-Rex cells stably expressing the XBP1-RLuc reporter, producing a Z′ score of 0.75 for Tg.
as §1

[3] = system: BiP expression in ALMC-2 cells; assay: BiP qPCR in ALMC-2 cells; format: cell-based, human; details: 10 μM, 6 h
Protocol: Cells were treated as described at 37° C., washed with Dulbecco's phosphate-buffered saline (Gibco), and then RNA was extracted using the RNeasy Mini Kit (Qiagen). qPCR reactions were performed on cDNA prepared from 500 ng of total cellular RNA using the QuantiTect Reverse Transcription Kit (Qiagen). The FastStart Universal SYBR Green Master Mix (Roche), cDNA, and appropriate human primers^4 or mouse primers (BiP; […] (SEQ ID NO: 5) and […] (SEQ ID NO: 6) purchased from Integrated DNA Technologies were used for amplifications (45 cycles of 1 min at 95° C., 10 s at 95° C., 30 sec at 60° C.) in an ABI 7900HT Fast Real Time PCR machine. Primer integrity was assessed by a thermal melt to confirm homogeneity and the absence of primer dimers. Transcripts were normalized to the housekeeping gene Rplp2 and all measurements were performed in triplicate. Data were analyzed using the RQ Manager and DataAssist 2.0 softwares (ABI).

[4] = system: ERSE-FLuc reporter (ATF6 arm of the UPR); assay: ERSE-FLuc reporter, 96-well, HEK293T-Rex cells (SAR and S1P inhibition); format: cell-based; details: for ERSE reporter activity relative to 147: HEK293T-Rex, 10 μM
Protocol: HEK293T-Rex cells incorporating the ERSE-FLuc reporter and HEK293^DAX cells were plated approximately 20,000 cells/well in flat-bottomed, black 96-well assay plates (Costar, Corning, Inc.) overnight prior to compound administration. Cells were treated with compounds as described for 12-18 h then the plates were equilibrated to room temperature and 50 μL of SteadyLite (PerkinElmer) was added to each well. Luminescence activity was measured in a Safire II microplate reader with a 1000 ms integration time.

[5] = system: endogenous secretory proteome of HepG2^ATF6 cells; assay: [35S] metabolic labeling, total secreted protein from HepG2^ATF6 cells; format: cell-based; details: 15 h pretreatment, 10 μM compound or 1 μM Tg, 4 h chase
Protocol: (§2) HepG2 cells or HEK293T cells plated on poly-D-lysine coated plates were metabolically labeled in DMEM-Cys/-Met (CellGro) supplemented with glutamine, penicillin/streptomycin, dialyzed fetal bovine serum, and EasyTag EXPRESS^35S Protein Labeling Mix (Perkin Elmer) for 30 min. Cells were washed twice with complete media and incubated in prewarmed DMEM for the indicated times. Media or lysates were harvested at the indicated times. Lysates were prepared in RIPA buffer with fresh protease inhibitor cocktail (Roche). FLAG tagged TTR variants or ALLC were immunopurified using M1 anti-FLAG agarose beads (Sigma-Aldrich) and washed three times with RIPA buffer. The immunoisolates were then eluted by boiling in Laemmli buffer and separated on SDS-PAGE. For total secreted media, 15 uL aliquots from media incubated for 4 hrs on pulsed cells were run on a SDS-PAGE. The gels were then dried, exposed to phosphorimager plates (GE Healthcare), and imaged with a Typhoon imager. Band intensities were quantified by densitometry in ImageQuant. Fraction secreted was calculated using the equation: fraction secreted=[extracellular [^35S]-LC signal at t=t/(extracellular [^35S]-LC signal at t=0+intracellular [^35S]-LC signal at t=0)]. Fraction remaining was calculated using the equation: [(extracellular [^35S]-LC signal at t=t+intracellular [^35S]-LC signal at t=t)/(extracellular [^35S]-LC signal at t=0+ intracellular [^35S]-LC signal at t=0)].

HEK293T-Rex cells = assay: mRNA-Seq transcriptional profiling and geneset analysis in HEK293T-Rex cells; format: cell-based, human; details: 6 h, compounds 10 μM, Tg 1 μM
Protocol: HEK293T-Rex and HEK293^DAX cells in 12-well plates were treated for 6 h with vehicle, 1 μM Tg, 10 μM TMP (in HEK293^DAX), or 10 μM 132, 147 or 263 in biological triplicate at 37° C. Cells were harvested, and RNA was extracted using the RNeasy Mini Kit (Qiagen). Total RNA was quantified using NanoDrop (ND-1000). Samples were run on the Illuina HiSeq system.
Single end, 100 bp-long reads from RNA-Seq experiments were aligned to the GRCh37.p13 human genome reference assembly using SeqMan NGen 11.2.1 (DNAStar, Inc.). The assembly data were then imported into ArrayStar with QSeq (DNAStar, Inc.) to quantify the gene expression levels. The sequence counts were normalized to reads per kilobase per million (RPKM) after filtering out non-mRNA sequence features. The statistical significance of the difference between the expression levels of a gene under different conditions was assessed using a Student's t-test with the Benjamini-Hochberg multiple testing correction.
ATF6- and XBP1s-selective target genes were identified from transcriptional profiles of HEK293D^X cells following stress-independent activation of TMP-dependent DHFR-ATF6 and/or tetracycline inducible XBP1s, as previously described^4. PERK-selective target genes were identified from^8. Only ATF6-, XBP1s- or PERK-selective genes induced >1.5 fold in Tg-treated samples were used in this analysis. The log transformed fold-increase of these target genes in HEK293T-Rex cells treated with the respective ER proteostasis regulators were then normalized to the log transformed fold increase of these genes induced by Tg treatment. The plots shown in FIG. 5b-e were prepared as box and whisker plots using Kaleidograph. Differential activation of the ATF6, XBP1s, and PERK genesets was assessed by one-way ANOVA and significance of pairwise comparison confirmed by unpaired t-test. An analogous strategy was employed to prepare the heat map using transcriptional data from the MGE analysis.

^FTTTR^WT = assay: [35S] metabolic labeling, secretion of flag-tagged TTR^WT from HepG2^ATF6 cells; format: cell-based; details: 15 h pretreatment, 10 μM compound or 1 μM Tg, 4 h chase
Protocol: as §2

^FTTTR^A25T = assay: [35S] metabolic labeling, secretion of flag-tagged TTR^A25T from HepG2^ATF6 cells; format: cell-based; details: 15 h pretreatment, 10 μM compound or 1 μM Tg, 4 h chase
Protocol: as §2

SMILES: CCCc1cc(C(=O)Nc2cc(C)ccc2O)no1 [Compound 145]
- % ERSE-FLuc activation [1]: 83.4 ± 6.3%
- % XBP1-RLuc activation [2]: 24.5 ± 4.7%
- expression of the ATF6 target gene BiP in ALMC-2 cells [3]: induced

SMILES: COc1ccccc1CCC(=O)Nc1cc(C)ccc1O [RP23]
- ERSE reporter activity relative to 147 [4]: slightly decrease or do not change

SMILES: CCCCNNC(=O)c1ccc(Br)cc1 [Compound 5]
- % ERSE-FLuc activation [1]: 60.9 ± 6.0%
- % XBP1-RLuc activation [2]: 9.1 ± 0.7%

SMILES: O=C1N/C(=C\c2ccc(O)cc2)C(=O)N1c1cccc(Cl)c1 [Compound 238]
- % ERSE-FLuc activation [1]: 68.2 ± 5.7%

SMILES: Cc1ccc(O)c(NC(=O)CCc2c(Cl)cccc2Cl)c1 [RP27]
- ERSE reporter activity relative to 147 [4]: decreases activity

SMILES: COc1ccc(CCC(=O)Nc2cc(C)ccc2O)cc1 [RP14]
- ERSE reporter activity relative to 147 [4]: slightly decrease or do not change

SMILES: Cc1ccc(O)c(NC(=O)CCc2ccccc2F)c1 [RP24]
- ERSE reporter activity relative to 147 [4]: increase

SMILES: Cc1ccc(O)c(NC(=O)CCc2ccccc2C)c1 [RP25]
- ERSE reporter activity relative to 147 [4]: slightly decrease or do not change

SMILES: Cc1ccc(O)c(NC(=O)CCc2ccccc2Cl)c1 [RP26]
- ERSE reporter activity relative to 147 [4]: increase

SMILES: Cc1cc(C)c(OCC(=O)N/N=C/c2ccc(Cl)c(O)c2)c(Br)c1 [Compound 258]
- % ERSE-FLuc activation [1]: 28.6 ± 6.1%
- % XBP1-RLuc activation [2]: 32.6 ± 1.0%

SMILES: C/C=C(/C)C(=O)O[C@H]1C(C)=C2[C@H]([C@@H]1OC(=O)CCCCCCC)[C@@](C)(OC(C)=O)C[C@H](OC(=O)CCC)[C@@]1(O)[C@H]2OC(=O)[C@@]1(C)O [Tg, thapsigargin, reference compound]
- accumulation of [35S]-labeled protein in media (total secreted proteome) [5]: significantly impaired
- BiP mRNA-Seq fold change (relative to Vh) (HEK293T-Rex cells; ATF6-selective gene): 11.6 fold
- GRP94 mRNA-Seq fold change (relative to Vh) (HEK293T-Rex cells; ATF6-selective gene): 4.2 fold
- SEL1L mRNA-Seq fold change (relative to Vh) (HEK293T-Rex cells; ATF6-selective gene): 7.6 fold
- DNAJB1 mRNA-Seq fold change (relative to Vh) (HEK293T-Rex cells; HSF1 target gene): 0.5 fold
- HSPA1A mRNA-Seq fold change (relative to Vh) (HEK293T-Rex cells; HSF1 target gene): 0.3 fold
- HSPA8 mRNA-Seq fold change (relative to Vh) (HEK293T-Rex cells; HSF1 target gene): 0.3 fold
- ASNS mRNA-Seq fold change (relative to Vh) (HEK293T-Rex cells; PERK target gene): 4.2 fold
- DDIT3 (CHOP) mRNA-Seq fold change (relative to Vh) (HEK293T-Rex cells; PERK target gene): 13.2 fold
- TrIB3 mRNA-Seq fold change (relative to Vh) (HEK293T-Rex cells; PERK target gene): 8.2 fold
- ERdj3 mRNA-Seq fold change (relative to Vh) (HEK293T-Rex cells; XBP1s- or ATF6-target gene): 4.0 fold
- HYOU1 mRNA-Seq fold change (relative to Vh) (HEK293T-Rex cells; XBP1s- or ATF6-target gene): 6.1 fold
- p58IPK mRNA-Seq fold change (relative to Vh) (HEK293T-Rex cells; XBP1s- or ATF6-target gene): 3.9 fold
- DNAJC10 mRNA-Seq fold change (relative to Vh) (HEK293T-Rex cells; XBP1s-selective gene): 2.1 fold
- HSPA13 mRNA-Seq fold change (relative to Vh) (HEK293T-Rex cells; XBP1s-selective gene): 4.2 fold
- SEC24D mRNA-Seq fold change (relative to Vh) (HEK293T-Rex cells; XBP1s-selective gene): 6.6 fold
- ERSE-FLuc activation on co-addition of the S1P inhibitor PF-429242 ([4]; PF-429242 10 μM, 18 h, regulators 10 μM, Tg 500 nM): impeded
- ^FTTTR^WT secretion (in words) (^FTTTR^WT): reduced
- ^FTTTR^A25T secretion (in words) (^FTTTR^A25T): reduced
